According to ChEMBL document CHEMBL1138184, “Synthesis and structure-activity relationship studies of 1,3-diarylprop-2-yn-1-ones: dual inhibitors of cyclooxygenases and lipoxygenases” (J Med Chem, 2006):

Key:
[1] = target: T1, Prostaglandin G/H synthase 1 (Ovis aries, UniProt P05979); test: Inhibitory activity against ovine COX1
T1 sequence (P05979 whole entry): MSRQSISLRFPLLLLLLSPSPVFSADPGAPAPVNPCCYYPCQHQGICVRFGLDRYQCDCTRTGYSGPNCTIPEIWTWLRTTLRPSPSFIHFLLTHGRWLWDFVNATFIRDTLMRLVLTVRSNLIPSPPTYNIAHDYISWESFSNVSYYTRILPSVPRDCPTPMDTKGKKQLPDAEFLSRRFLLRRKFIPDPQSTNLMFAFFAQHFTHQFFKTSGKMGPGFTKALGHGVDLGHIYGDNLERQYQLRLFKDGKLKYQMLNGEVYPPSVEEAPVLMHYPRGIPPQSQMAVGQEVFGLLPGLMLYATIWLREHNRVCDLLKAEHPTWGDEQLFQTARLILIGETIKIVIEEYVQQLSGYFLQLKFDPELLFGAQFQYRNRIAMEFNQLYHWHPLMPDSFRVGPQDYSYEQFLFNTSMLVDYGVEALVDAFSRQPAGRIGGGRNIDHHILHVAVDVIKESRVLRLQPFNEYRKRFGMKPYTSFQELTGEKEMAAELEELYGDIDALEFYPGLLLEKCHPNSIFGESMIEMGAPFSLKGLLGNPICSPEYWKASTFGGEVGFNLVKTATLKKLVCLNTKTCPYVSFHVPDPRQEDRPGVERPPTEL

[2] = target: T2, Seed linoleate 13S-lipoxygenase-1 (Glycine max, UniProt P08170)
T2 sequence (P08170 whole entry): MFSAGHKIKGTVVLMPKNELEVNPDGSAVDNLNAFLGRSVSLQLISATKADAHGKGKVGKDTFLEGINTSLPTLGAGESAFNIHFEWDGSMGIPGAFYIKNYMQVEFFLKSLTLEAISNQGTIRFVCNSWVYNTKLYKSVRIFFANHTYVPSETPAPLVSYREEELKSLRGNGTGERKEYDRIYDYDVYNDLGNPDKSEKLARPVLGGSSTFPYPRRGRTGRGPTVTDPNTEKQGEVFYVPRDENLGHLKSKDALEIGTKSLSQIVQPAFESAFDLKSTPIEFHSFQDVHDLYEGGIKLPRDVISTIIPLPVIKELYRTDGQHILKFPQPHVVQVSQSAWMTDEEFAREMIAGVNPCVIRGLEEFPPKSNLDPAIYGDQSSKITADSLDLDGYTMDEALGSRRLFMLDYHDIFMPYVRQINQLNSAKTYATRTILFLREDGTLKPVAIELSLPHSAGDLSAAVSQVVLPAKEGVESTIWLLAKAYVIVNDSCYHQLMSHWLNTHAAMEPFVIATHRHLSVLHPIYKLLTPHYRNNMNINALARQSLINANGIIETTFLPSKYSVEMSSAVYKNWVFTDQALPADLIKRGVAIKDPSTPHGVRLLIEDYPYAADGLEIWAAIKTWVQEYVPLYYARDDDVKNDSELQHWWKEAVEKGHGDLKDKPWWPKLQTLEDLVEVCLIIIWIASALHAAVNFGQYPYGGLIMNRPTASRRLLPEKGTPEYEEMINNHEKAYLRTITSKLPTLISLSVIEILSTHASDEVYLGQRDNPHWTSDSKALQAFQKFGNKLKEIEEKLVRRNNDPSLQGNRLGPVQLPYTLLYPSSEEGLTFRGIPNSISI
Description: Inhibitory activity against soybean 15LOX

5-lipoxygenase = target: T3, 5-lipoxygenase (Solanum tuberosum, UniProt O49150); test: Inhibitory activity against potato 5LOX
T3 sequence (O49150 whole entry): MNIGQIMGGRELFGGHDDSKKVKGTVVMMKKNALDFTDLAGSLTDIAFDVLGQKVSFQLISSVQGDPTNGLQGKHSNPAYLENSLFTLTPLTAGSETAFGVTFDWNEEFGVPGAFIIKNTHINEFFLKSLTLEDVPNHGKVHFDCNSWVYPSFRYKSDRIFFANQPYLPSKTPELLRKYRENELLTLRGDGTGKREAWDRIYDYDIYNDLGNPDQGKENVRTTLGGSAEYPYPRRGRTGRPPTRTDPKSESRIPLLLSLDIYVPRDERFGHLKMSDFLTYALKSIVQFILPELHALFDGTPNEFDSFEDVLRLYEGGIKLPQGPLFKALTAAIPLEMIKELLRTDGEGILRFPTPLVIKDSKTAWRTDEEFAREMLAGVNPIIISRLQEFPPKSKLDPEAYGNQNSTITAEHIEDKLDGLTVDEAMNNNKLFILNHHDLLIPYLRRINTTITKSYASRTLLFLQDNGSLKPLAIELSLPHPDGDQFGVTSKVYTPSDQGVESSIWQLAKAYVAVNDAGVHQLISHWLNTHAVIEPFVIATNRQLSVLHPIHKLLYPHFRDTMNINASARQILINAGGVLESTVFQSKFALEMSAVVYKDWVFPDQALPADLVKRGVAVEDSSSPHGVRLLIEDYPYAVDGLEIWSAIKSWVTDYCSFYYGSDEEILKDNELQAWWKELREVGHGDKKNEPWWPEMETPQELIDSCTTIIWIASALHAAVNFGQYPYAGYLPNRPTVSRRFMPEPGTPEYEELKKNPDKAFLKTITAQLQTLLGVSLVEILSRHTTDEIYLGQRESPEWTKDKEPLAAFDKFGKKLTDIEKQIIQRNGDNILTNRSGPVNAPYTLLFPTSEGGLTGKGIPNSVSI

Rattus norvegicus [3] = test: Inhibitory activity against 4% NaCl-induced abdominal constriction in Sprague-Dawley rat after 60 min of 30 mg/kg, po; type: functional; conditions: Abdomen, 1 h
Rattus norvegicus [4] = test: Anti-inflammatory activity against carrageenan-induced edema in Sprague-Dawley rat paw after 3 hrs of 30 mg/kg, po; type: functional
Rattus norvegicus [5] = test: Inhibitory activity against 4% NaCl-induced abdominal constriction in Sprague-Dawley rat after 30 min of 30 mg/kg, po; type: functional; conditions: Abdomen, 0.5 h
Rattus norvegicus [6] = organism: Rattus norvegicus; test: animal or person; conditions: Sprague-Dawley, Abdomen, po, 0.5 h, read-out: Inhibition
Description: Inhibitory activity against 4% NaCl-induced abdominal constriction in Sprague-Dawley rat after 30 min of 5 mg/kg, po

| Structure (SMILES) | IC50 [1] [µM] | IC50 [2] [µM] | IC50 (5-lipoxygenase) [µM] | inhibition in vivo at 30 mg/kg (Rattus norvegicus [3]) [%] | inhibition in vivo at 30 mg/kg (Rattus norvegicus [4]) [%] | inhibition in vivo at 30 mg/kg (Rattus norvegicus [5]) [%] | ED50 (Rattus norvegicus [4]) [mg/kg] | inhibition in vivo at 5 mg/kg (Rattus norvegicus [6]) [%] |
| --- | --- | --- | --- | --- | --- | --- | --- | --- |
| CS(=O)(=O)c1ccc(C#CC(=O)c2ccc(S(C)(=O)=O)cc2)cc1 | > 100 | > 10 | > 10 |  |  |  |  |  |
| COc1cccc(C(=O)C#Cc2ccc(S(C)(=O)=O)cc2)c1 |  |  | 9 | 54.7 | 24.2 | 72.6 |  |  |
| CS(=O)(=O)c1ccc(C#CC(=O)c2ccc(O)cc2)cc1 |  |  | 0.3 | 56.6 | 37.4 | 52.4 | 51.3 |  |
| CC(C)c1ccc(C(=O)C#Cc2ccc(S(C)(=O)=O)cc2)cc1 | 9.2 | 0.36 |  | 53.7 | 48.1 | 40.7 | 35 |  |
| CC(=O)Oc1ccccc1C(=O)O [ASPIRIN] |  |  |  | 46.4 |  | 29.7 | 129 |  |
| COc1cc(C(=O)C#Cc2ccc(S(C)(=O)=O)cc2)ccc1O |  |  | > 10 | 45.8 | 26 | 15.4 |  |  |
| CS(=O)(=O)c1ccc(C#CC(=O)c2cccc([N+](=O)[O-])c2)cc1 | 2 | 3.5 | > 10 |  |  |  |  |  |
| COC(=O)c1ccc(C(=O)C#Cc2ccc(S(C)(=O)=O)cc2)cc1 | > 100 | 5 | > 10 | 71.2 | 21.5 | 56.2 |  |  |
| CS(=O)(=O)c1ccc(C#CC(=O)c2ccc([N+](=O)[O-])cc2)cc1 | 0.25 | > 10 | 6.2 |  |  |  |  |  |
| CSc1ccc(C(=O)C#Cc2ccc(S(C)(=O)=O)cc2)cc1 | 9.2 | 0.36 |  |  |  |  |  |  |
| COc1ccc(C(=O)C#Cc2ccc(S(C)(=O)=O)cc2)c2ccccc12 | > 100 | 0.3 | > 10 | 36.7 | 24 | 56.7 |  |  |
| O=C(O)/C=C/c1ccc(O)c(O)c1 [CAFFEIC ACID] |  |  |  | 58.3 | 8.2 | 47.2 |  |  |
| COc1cc(C(=O)C#Cc2ccc(S(C)(=O)=O)cc2)cc(OC)c1OC |  |  | 7 | 46.2 | 35.7 | 60.2 | 113 |  |
| COc1ccc(C(=O)C#Cc2ccc(S(C)(=O)=O)cc2)cc1O |  |  | > 10 |  |  |  |  |  |
| CS(=O)(=O)c1ccc(C#CC(=O)c2ccoc2)cc1 | 1 | > 10 | 0.1 | 76.6 | 26.4 | 57.7 |  |  |
| CS(=O)(=O)c1ccc(C#CC(=O)c2cccc3ccccc23)cc1 | > 100 | > 10 | > 10 | 40.3 | 8.8 | 56.4 |  |  |
| Cc1ccc(-c2cc(C(F)(F)F)nn2-c2ccc(S(N)(=O)=O)cc2)cc1 [CELECOXIB] |  |  |  |  |  |  |  | 69.3 |
| CS(=O)(=O)c1ccc(C#CC(=O)c2ccc(F)c(F)c2)cc1 |  |  | 0.4 | 46.1 | 6.8 | 50.8 |  |  |
| CS(=O)(=O)c1ccc(C#CC(=O)c2cccc(O)c2)cc1 |  |  | 0.3 |  |  |  |  |  |
| COc1ccc(C(=O)C#Cc2ccc(S(C)(=O)=O)cc2)cc1OC | 3.3 | > 10 | 1 |  |  |  |  |  |
| CS(=O)(=O)c1ccc(C#CC(=O)c2ccc(F)cc2)cc1 |  |  | > 10 | 72 | 26.3 | 83.8 |  |  |
| CS(=O)(=O)c1ccc(C#CC(=O)c2ccc(C#N)cc2)cc1 |  |  |  | 36.2 | 29.6 | 48.6 | 90 |  |
| Cc1ccc(C(=O)C#Cc2ccc(S(C)(=O)=O)cc2)cc1 |  |  | > 10 |  |  |  |  |  |
| COc1ccc(C(=O)C#Cc2ccc(S(C)(=O)=O)cc2)cc1 |  |  | > 10 | 38.6 | 30.2 | 42.7 | 60.1 |  |
| CS(=O)(=O)c1ccc(C#CC(=O)c2ccc(C(F)(F)F)cc2)cc1 |  |  | > 10 | 66.2 | 16.2 | 38 |  |  |
| CCCc1ccc(C(=O)C#Cc2ccc(S(C)(=O)=O)cc2)cc1 | 3.2 | 3.2 | 3.2 |  |  |  |  |  |
| CC(Cc1ccc(O)c(O)c1)C(C)Cc1ccc(O)c(O)c1 (stereo unspecified) [NORDIHYDROGUAIARETIC ACID] |  |  |  | 62.5 | 15.1 | 45.8 | 205 |  |
| CS(=O)(=O)c1ccc(C#CC(=O)c2ccno2)cc1 | 32.2 | > 10 | 1.5 |  |  |  |  |  |
| CCCCc1ccc(C(=O)C#Cc2ccc(S(C)(=O)=O)cc2)cc1 | > 100 | > 10 | 4.5 |  |  |  |  |  |
